Test results: patent US8486381B2, “Methods of modulating intestinal fluid balance” (Amgen Inc., priority 2005, dated 2013)
pEC50: −log10 of the molar value. Entries after “also recorded” stand apart in the source; their conditions may differ. Counter-ions that a name gives are not always drawn. Like-named read-outs stand apart in the source and are kept apart here.

Key:
[1] = test system: colonic crypts from Casr^+/+:Gcm2^+/+ mice; test: Net Jv in perfused colonic crypts from wild type mice; type: cell-based; conditions: for Effect on net fluid secretion induced by Guanylin and CTX: Casr^+/+:Gcm2^+/+
[2] = test system: rat colonic crypts; test: Absorptive fluid movement (netJv with secretion inhibited) in perfused rat colonic crypts; type: cell-based
[3] = test system: basolateral Cl^− entry into colonic crypt cells via NKCCl; test: Cell Cl^− influx measurements (MQAE fluorescence) in colonic crypts; type: cell-based, rat
Experimental: Cl^− Measurements. Cell Cl^− influx measurements (Egan, M. E. et al. Nat. […] Molecular Probes]. After dye loading, crypts were incubated in a Cl^− free HEPES buffer until stable high baseline fluorescence intensity was achieved. Rates of cell Cl^− influx were monitored as rates of reductions in arbitrary MQAE fluorescent units (ΔAFU/min; Ex: 346 nm; EM: 460 nm).

[4] = test system: isolated rat colonic crypts; test: Net fluid movement (Jv) in in vitro perfused rat colonic crypts; type: cell-based; conditions: for pEC50: Rattus norvegicus, read-out: EC50, attenuation of forskolin-induced net fluid secretion, forskolin 10 μM, 0.1 mM Ca^2+; for Effect on net fluid secretion in presence of forskolin and PLC inhibitor U73122: U73122 10 μM, 0.1 mM calcium
[5] = test system: colonic crypts from Casr^−/−:Gcm2^−/− mice; test: Net Jv in perfused colonic crypts from CaSR null mice; type: cell-based; conditions: for Effect on net fluid secretion induced by Guanylin and CTX: Casr^−/−:Gcm2^−/−
[6] = test system: apical NHE (Na^+/H^+ exchanger); test: NHE activity: Na^+-dependent proton extrusion from colonocytes; type: cell-based, rat; conditions: forskolin present
Text: Cyclic nucleotide-dependent fluid loss in secretory […] occurs through reduction in absorptive, and increases in secretory, processes. Lucas, M. L. J. Appl. Microbiol. 90, 7-26, 2001; Golin-Bisello, F. et al. Am. J. Cell. Physiol. 289, […]-[…], 2005. Colonic epithelial crypts provide a model for understanding intestinal fluid transport as they simultaneously absorb and secrete fluid with the direction of net fluid movement (^netJv) depending on the relative magnitudes of these two processes. A major component of fluid absorption in the colon is mediated by parallel Na^+/H^+ (sodium-hydrogen exchanger, NHE) and Cl^-/HCO3^- exchange located at the apical plasma membranes. Kunzelman, K. et al. Physiol. Rev. 82, 245-289, 2002; Donowith, M. et al. Annu. Rev. Physiol. 48, 135-150, 1986. Cyclic nucleotides reduce this Na^+-dependent fluid absorption by inhibiting NHE activity. […] This basal fluid was likely due to the low levels of cell cyclic nucleotides that remain even in the absence of secretagogues. […] To examine if this latter effect of CaSR agonists on fluid absorption resulted from enhanced apical NHE activity, the effects of Ca^2+ on Na^+-dependent proton extrusion from colonocytes were assessed in the presence of forskolin. […] Cell acid loading was accomplished by exposure to NH4Cl and Na^+-dependent cell pH recovery following removal of NH4Cl was assessed as an index of Na^+/H^+ activity. […]

[7] = test system: cyclic AMP; test: Secretagogue-stimulated cyclic AMP accumulation in colonic crypt cell suspensions; type: cell-based
[8] = test system: proximal and distal colon crypts; type: cell-based, Sprague-Dawley rats
[9] = test system: BALB/c mice; conditions: mouse, in vivo
[10] = test system: BALB/c mice; conditions: mouse, in vivo; remark: listed apart in the source
[11] = test system: cyclic GMP; test: Secretagogue-stimulated cyclic GMP accumulation in colonic crypt cell suspensions; type: cell-based; conditions: IBMX 1 mM
[12] = test system: proximal or distal colon segments; type: cell-based, Sprague-Dawley rats
[13] = extracellular calcium raised from 0.1 mM to 2 mM

## [Ca+2] [Ca^2+]
[1]; [13]
  Effect on net fluid secretion induced by Guanylin and CTX: reversed net fluid secretion
[2]; extracellular Ca^2+ increased to 2 mM
  Effect on cAMP-mediated reduction in fluid absorption: significantly abrogated
[3]; calcium increased from 0.1 to 2 mM
  Effect on Cl^− entry via NKCCl in the presence of CTX: inhibited Cl^− entry
[4]
  Effect on net fluid secretion induced by Guanylin or STa: reversed net fluid secretion
  Effect on net fluid secretion induced by forskolin or cholera toxin: reversed net fluid secretion
[5]; [13]
  Effect on net fluid secretion induced by Guanylin and CTX: did not
[6]; basolateral bath Ca^2+ raised from 0.1 to 2 mM
  Increase in NHE activity: 8 fold
[7]
  Effect on forskolin or cholera toxin induced cyclic AMP production: attenuates

## COc1cccc([C@@H](C)NCCCc2ccccc2Cl)c1.Cl [Compound A, N-(3-[2-chlorophenyl]-propyl)-R-α-methyl-3-methoxybenzylamine HCl]
[8]
  Effect on forskolin-induced net fluid secretion in presence of TTX: attenuated forskolin-induced net fluid secretion
[1]; 100 nM, 0.1 mM calcium
  Effect on net fluid secretion induced by Guanylin and CTX: effectively reversed net fluid secretion
[2]; added to basolateral bath in the presence of 0.5 mM calcium
  Effect on cAMP-mediated reduction in fluid absorption: significantly abrogated
[3]; 100 nM in basolateral fluid
  Effect on rate of forskolin-stimulated Cl^− entry: significantly reduced
[4]; compound in bath
  pEC50: 11.29
[4]; compound in lumen
  pEC50: 10.63
[4]; compound added to both luminal and bath
  Effect on net fluid secretion in presence of forskolin and PLC inhibitor U73122: did not completely reverse net fluid secretion
[4]; compound added to lumen or bath
  Effect on net fluid secretion in presence of forskolin and PLC inhibitor U73122: had no significant effect on reversing net fluid secretion
[5]; 100 nM, 0.1 mM calcium
  Effect on net fluid secretion induced by Guanylin and CTX: did not reverse net fluid secretion
[6]; Compound A added to the 2 mM Ca^2+-containing bath
  Increase in NHE activity: 12 fold

## COc1cccc(C(C)NCCCc2ccccc2Cl)c1 (stereo not drawn) [Compound A, S-stereoisomer, N-(3-[2-chlorophenyl]-propyl)-α-methyl-3-methoxybenzylamine HCl]
[4]; compound in bath
  pEC50: 9.21
[4]; compound in lumen
  pEC50: 9.12

## COc1ccc(CNC(C)c2ccccc2)cc1-c1ccc(C(F)(F)F)cc1 (stereo not shown) [Compound B, N-((6-(methyloxy)-4′-(trifluoromethyl)-1,1′-biphenyl-3-yl)methyl)-1-phenylethanamine]
[9]
  Cholera toxin-induced gastrointestinal fluid accumulation: statistically significant reduction
[10]
  Mortality 24 hrs (moribund): 2/5
  Volume of fluid accumulating in the small intestine: dose-dependent reduction

## Cn1c(NC[C@@H](N)Cc2ccccc2)nc(-c2ccncc2)c(-c2ccc3ccccc3c2)c1=O [Compound C, 2-(((2S)-2-amino-3-phenylpropyl)amino)-3-methyl-5-(2-naphthalenyl)-6-(4-pyridinyl)-4(3H)-pyrimidinone]
[10]; female, BALB/c
  Mortality: 100%

## CC(C)Cn1c(=O)n(C)c(=O)c2[nH]cnc21 [IBMX, 3-Isobutyl-1-Methylxanthine]
[7]; IBMX added (1 mM per method)
  Effect on attenuation of cyclic AMP production by 2.0 mM Ca^2+: reverses this effect
[11]
  Effect on attenuation of cyclic GMP production by 2.0 mM Ca^2+: reverses this effect

## NC1=N[C@H](O)[C@H]2[C@H]3O[C@]4(O)O[C@@H]([C@@H](O)[C@@]2(N1)[C@@H]4O)[C@]3(O)CO [TTX, tetrodotoxin]
[12]
  Effect on ability of calcimimetics to reverse forskolin-stimulated increase in Isc: abolished
[8]
  Effect on forskolin-induced net fluid secretion: did not change the ability of forskolin to induce a net fluid secretion

## CCCCNc1cc(C(=O)O)cc(S(N)(=O)=O)c1Oc1ccccc1 [bumetanide]
[2]; added to basolateral bath
  netJv in the absence of secretagogues: increased the positive or absorptive ^netJv
[3]; 100 μM basolateral
  Effect on forskolin-stimulated increase in cell Cl^−: abolished

## CCCC(=O)Nc1ncnc2c1ncn2[C@@H]1O[C@@H]2COP(=O)(O)O[C@H]2[C@H]1OC(=O)CCC [db-cyclic AMP, dibutyryl-cAMP]
[2]; in the presence of bumetanide
  Absorptive fluid movement: substantially reduced

## C=C[C@@]1(C)CC(=O)[C@]2(O)[C@@]3(C)[C@@H](O)CCC(C)(C)[C@@H]3[C@H](O)[C@H](OC(C)=O)[C@@]2(C)O1 [forskolin]
[8]
  Mean Jv, distal colonic crypts: −0.33±0.01 nL/min/mm
  Mean Jv, proximal colonic crypts: −0.32±0.02 nL/min/mm

## Guanylin
[1]
  Net fluid movement (Jv) on exposure to secretagogue: induced net fluid secretion
[4]
  Net fluid movement (Jv) on exposure to secretagogue: induced net fluid secretion
[5]
  Net fluid movement (Jv) on exposure to secretagogue: induced net fluid secretion

## cholera toxin
[1]
  Net fluid movement (Jv) on exposure to secretagogue: induced net fluid secretion
[4]
  Net fluid movement (Jv) on exposure to secretagogue: induced net fluid secretion
[5]
  Net fluid movement (Jv) on exposure to secretagogue: induced net fluid secretion
[7]
  cAMP production on exposure to secretagogue: induce cAMP production; also recorded: induce cyclic AMP production
